Source: patent publication US20230165242A1, “RODENTICIDAL BAIT AND METHOD OF CONTROLLING TARGET HARMFUL RODENTS” (priority 2020, published 2023)

Key:
Type in all cases: in vivo, rat
[1] = system: warfarin-sensitive male OFA-Sprague-Dawley rats; experiment: Synergy of bromadiolone and cholecalciferol, gavage, survival; settings: gavage 5 consecutive days; bromadiolone 0.1 mg/kg alone, cholecalciferol 7.5 mg/kg alone, or both combined; after 20 days of observation
Description: A group of 10 warfarin-sensitive male OFA-Sprague-Dawley rats (Charles River, L′Arbresles, France), aged 10 weeks and with a body weight between 160 and 180 g, are fed by gavage for 5 consecutive days with a gavage solution containing bromadiolone (LIPHATECH, France) and cholecalciferol (Sigma-Aldrich, France) in a solvent consisting of 95% (v/v) of oil and 5% (v/v) of DMSO. During this period of gavage, the rats are fed with a conventional solid feed and water in unlimited amounts. The rats are fed by gavage with a volume of this gavage solution so as to administer an amount of bromadiolone corresponding to 0.1 mg of bromadiolone per kilogram of body weight of the rat fed by gavage and an amount of cholecalciferol corresponding to 7.5 mg of cholecalciferol per kilogram of body weight of the rat fed by gavage. The rats in two control groups, each consisting of 10 male OFA-Sprague-Dawley rats, are fed by gavage in the same conditions with gavage solutions containing, respectively, bromadiolone alone so as to administer an amount of bromadiolone corresponding to 0.1 mg of bromadiolone per kilogram of body weight of the rat fed by gavage and cholecalciferol alone so as to administer an amount of cholecalciferol corresponding to 7.5 mg of cholecalciferol per kilogram of body weight of the rat fed by gavage. […]

[2] = system: Sprague-Dawley rats that are homozygotic carriers of the Y139F mutation; experiment: Relative toxicity of cholecalciferol, single gavage dose, Y139F rats; settings: single gavage dose 30 mg/kg; 20 days
Description: Warfarin-sensitive Sprague-Dawley rats (20 male rats and 20 female rats), male and female rats that are homozygotic carriers of the L120Q mutation, male and female Sprague-Dawley rats that are homozygotic carriers of the Y139F mutation and male and female brown rats (Rattus norvegicus) that are homozygotic carriers of the Y1 39C mutation are acclimatized for 5 days in the presence of a conventional solid feed and water in unlimited amounts. The rats are fed by gavage with a single dose of a gavage solution containing cholecalciferol (Sigma-Aldrich, France) in a solvent consisting of 95% (v/v) of oil and 5% (v/v) of DMSO. The rats are fed with a conventional solid feed and water in unlimited amounts. The amount of cholecalciferol administered is 30 mg of cholecalciferol per kilogram of body weight of the rat fed by gavage. The percentage of rats surviving gavage for 20 days, counting from the first day of gavage, is noted daily. The results given in Table 4 hereunder describe the mortality observed (“SD”, Sprague-Dawley). The amount of cholecalciferol ingested by the rodents during gavage corresponds to consumption by these rodents of a bait assayed at 300 ppm of cholecalciferol.

[3] = system: Female Sprague-Dawley rats that are homozygotic carriers of the Y139F mutation in the Vkorc1 gene; experiment: Synergy of difethialone and cholecalciferol on warfarin-resistant female Sprague-Dawley Y139F rats; settings: gavage once a day for 3 days; difethialone 0.125 mg/kg alone, cholecalciferol 7.5 mg/kg alone, or both combined; 22 days of observation
Description: Female Sprague-Dawley rats that are homozygotic carriers of the Y139F mutation in the Vkorc1 gene, aged 10 weeks, are acclimatized for 5 days in the presence of a conventional solid feed and water in unlimited amounts. These female Sprague-Dawley Y139F rats are fed by gavage once a day for 3 consecutive days with a gavage solution containing difethialone (LIPHATECH, France) and cholecalciferol (Sigma-Aldrich, France) in a solvent consisting of 95% (v/v) of oil and 5% (v/v) of DMSO. During this period of gavage, the rats are fed with a conventional solid feed and water in unlimited amounts. The amounts of difethialone and cholecalciferol administered are 0.125 mg per kilogram of body weight of the rat fed by gavage and 7.5 mg per kilogram of body weight of the rat fed by gavage, respectively. The rats in two control groups, each consisting of OFA-Sprague-Dawley […] rats, are fed by gavage in the same conditions with gavage solutions containing, respectively, difethialone alone so as to administer an amount of difethialone corresponding to 0.125 mg per kilogram of body weight of the rat fed by gavage and cholecalciferol alone so as to administer an amount of cholecalciferol corresponding to 7.5 mg per kilogram of body weight of the rat fed by gavage. The percentage of rats surviving gavage is noted daily for 21 days counting from the first day of gavage. […]

C=C1CC[C@H](O)C/C1=C/C=C1\CCC[C@]2(C)[C@@H]([C@H](C)CCCC(C)C)CC[C@@H]12 [cholecalciferol]
percentage of rats surviving [1]: 70%
Female mortality, % [2]: 0%
Male mortality, % [2]: 30%
percentage of rats surviving [3]: 90%
